Here are results for three compounds from US5208364A, “Antibiotic 5-lipoxygenase inhibitors” (Bristol-Myers Squibb Co., priority 1992, dated 1993).

Data set [1] addresses T1, rat 5-LPO (Rattus norvegicus, UniProt P12527).
T1 construct: produced in a cell-free extract of rat basophilic leukemia cells; endogenous in cells; host or cells: RBL-1 rat basophilic leukemia cells (ATCC CRL 1378), cell-free extract
T1 sequence (P12527 1-673): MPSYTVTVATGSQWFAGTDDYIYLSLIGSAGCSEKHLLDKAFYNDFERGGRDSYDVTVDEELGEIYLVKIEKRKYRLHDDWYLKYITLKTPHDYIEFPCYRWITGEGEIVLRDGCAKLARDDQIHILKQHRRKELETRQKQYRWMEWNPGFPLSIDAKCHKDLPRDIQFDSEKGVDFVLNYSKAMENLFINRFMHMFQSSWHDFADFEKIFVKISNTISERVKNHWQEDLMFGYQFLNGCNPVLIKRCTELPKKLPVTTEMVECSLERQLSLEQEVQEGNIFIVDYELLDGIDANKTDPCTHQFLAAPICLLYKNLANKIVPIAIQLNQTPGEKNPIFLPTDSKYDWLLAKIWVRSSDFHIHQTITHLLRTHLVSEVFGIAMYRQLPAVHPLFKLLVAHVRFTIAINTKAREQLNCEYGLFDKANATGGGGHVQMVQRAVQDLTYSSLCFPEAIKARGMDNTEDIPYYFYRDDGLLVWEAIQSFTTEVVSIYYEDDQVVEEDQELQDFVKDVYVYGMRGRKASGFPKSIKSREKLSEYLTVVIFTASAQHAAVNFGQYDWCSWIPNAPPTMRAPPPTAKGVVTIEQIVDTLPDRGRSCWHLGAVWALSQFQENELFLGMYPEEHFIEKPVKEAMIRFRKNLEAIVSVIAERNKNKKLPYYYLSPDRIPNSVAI
As to the kind of experiment: 5-LPO inhibitory activity (5-HETE produced in cell-free extract of rat basophilic leukemia RBL-1 cells, HPLC). The class given is biochemical. To be noted: arachidonic acid substrate, 37° C., 5 minutes. The procedure:
The assay method employed in this manuscript is a slight modification of that published by Hook, Yacobuci, O'Connor, Lee, Kerns, Krishnan, Matson and Hesler in "Identification of the inhibitory activity of carbazomycins B and C against 5-lipoxygenase: a new activity for these compounds", J. Antibiot. (1990) 43, 1347. Rat basophilic leukemia cells […]. They were harvested by centrifugation and washed twice with […] containing I mM EDTA. The cells were resuspended in the same buffer and sonicated. The suspension was centrifuged at 13,000×g to remove cell debris and the supernatant stored at -80° C.
Enzyme assays were conducted by diluting the cell-free extract to the desired specific enzyme activity with phosphate buffer saline (PBS) containing 28.5 mM phosphate, 1 mM ethylenediamine tetraacetic acid (EDTA), 0.9 mM adenosine triphosphate (ATP) and 0.9 mM glutathione. The cell-free extract solution (110 μ1) was preincubated at 37° C. for 2.5 minutes, followed by the addition of the test sample in 20 μl of DMSO-PBS (1:9, v/v). The reaction was started by the addition of 5 μl of substrate (2 mM arachidonic acid plus 25 mM CaC12 in ethanol-water, 3:1). After incubation for 5 minutes, the reaction was terminated by the addition of 135 μl of ethanol and the solution centrifuged to remove precipitated protein. The 5-hydroxyeicosatetraenoic acid (5-HETE) in the supernatant was analyzed by HPLC as described below.
The inhibitory effect of a fermentation broth extract or a purified preparation was determined by measuring the amount of 5-hydroxyeicosatetraenoic acid (5-HETE) produced in a cell-free extract of rat basophilic leukemia cells (RBL-I cells, ATCC CRL 1378) in the presence of a test sample, arachidonic acid, adenosine triphosphate, CaC12 and glutathione. […] The concentration of 5-HETE was spectrophotometrically measured at 230 nm with a Gilson 115 UV detector and a Hewlett Packard 3396 A integrator.

A short description of data set [2]: Solubility (physico-chemical properties). The class given is physicochemical.

In data set [1], `CC(C)CCCCCCCCCOC(=O)c1cc(O)ccc1N` [Compound IC, Isolauryl 5-hydroxyanthranilate] registered a 50% inhibitory concentration (IC50) of 6.3 µM. For the same compound, in data set [2], the “solubility in methanol, ethanol, ethyl acetate, chloroform and dimethyl sulfoxide” value is reported as “soluble”; the solubility in n-hexane result is listed as “slightly soluble”; the solubility in water entry was “insoluble”.
The matching figures for `CC(C)CCCCCCCOC(=O)c1cc(O)ccc1N` [IA, Isodecyl 5-hydroxyanthranilate]: 3.4 µM, “soluble”, “slightly soluble” and “insoluble”.
The matching figures for `CC(C)CCCCCCCCOC(=O)c1cc(O)ccc1N` [IB, Isoundecyl 5-hydroxyanthranilate]: 4.9 µM, “soluble”, “slightly soluble” and “insoluble”.
